Molecular target: T1, hGBP1^311 (Homo sapiens, UniProt P32455)
T1 construct: gene GBP1; truncated, without the helical domain; purified as previously reported
T1 sequence (P32455 1-311): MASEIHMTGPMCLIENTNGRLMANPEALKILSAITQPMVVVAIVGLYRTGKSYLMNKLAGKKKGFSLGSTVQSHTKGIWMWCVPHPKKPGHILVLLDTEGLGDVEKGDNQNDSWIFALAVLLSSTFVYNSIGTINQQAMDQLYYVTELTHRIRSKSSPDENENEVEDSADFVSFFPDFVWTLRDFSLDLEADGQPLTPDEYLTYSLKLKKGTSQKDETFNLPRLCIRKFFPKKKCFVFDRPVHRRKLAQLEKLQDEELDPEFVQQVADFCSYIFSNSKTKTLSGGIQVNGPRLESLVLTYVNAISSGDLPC
Test: radiolabelled [α-32P]GTP, thin-layer chromatography
Format: biochemical
Conditions: Tris pH 7.5, 5 mM MgCl2, 37 °C

Nc1nc2c(ncn2[C@@H]2O[C@H](COP(=O)(O)OP(=O)(O)OP(=O)(O)O)[C@@H](O)[C@H]2O)c(=O)[nH]1 [GTP]
radiolabelled [α-32P]GTP, thin-layer chromatography: the deletion of the helical domain of hGBP1 significantly reduced GMP production

— article PMC10910063, “Helical domain of hGBP3 cannot stimulate the second phosphate cleavage of GTP” (The Journal of Biological Chemistry, 2024)
